For the assay, the system named is P. falciparum 3D7 growth, pLDH absorbance. The assay can be described thus: P. falciparum 3D7 growth inhibition, dose response, strain 3D7 (AID 2305).

pIC50: −log10 of the molar value.

As for `Oc1ccc(Nc2ccnc3cc(Cl)ccc23)cc1`, the pIC50 is 6.13.
As for `O=c1cc(NCCCCNCc2cccc(Cl)c2)[nH]c2ccccc12`, the figure is 6.13; as for `Cc1cc(N[C@@H](Cc2ccccc2)C(=O)NCCc2ccccc2)nc(NCCc2ccccc2)n1`, 6.07.
As for `CCC(CC)OC(=O)C(C)c1cccc(C(=O)c2ccccc2)c1` (centres undefined), the figure is 6.08; as for `COc1ccc(Nc2nccc(-c3ccc4c(-c5ccsc5)cnc(N)c4c3)n2)cc1`, 6.62; as for `Cc1cc(N[C@@H](CC(C)C)C(=O)NCc2cccc(F)c2)nc(Nc2ccccc2)n1`, 5.96.
Take `COc1ccc2c(NN=Cc3ccccc3F)ccnc2c1`: the pIC50 was 6.68.
The molecule `COc1ccc2nccc([C@@H](O)CN3CCC(NS(=O)(=O)c4cc(Br)c(Br)s4)CC3)c2c1` gave a pIC50 of 6.07.
To `O=C(NCCCCN1CCN(c2cccc3c2OCCO3)CC1)c1ccc(NC(=O)c2cc(Cl)cc(Cl)c2)cc1` belongs 6.66; to `FC(F)(F)c1ccc(CSc2ccc3nnc(-c4ccccn4)n3n2)cc1`, 6.09.
To `CCCNCc1ccc(-c2ccc(CN(CCOC)C(=O)c3ccc([N+](=O)[O-])c(C)c3)cc2)nc1` belongs 6.06; to `CN1CCC(NCc2cccc(-c3ccc(S(=O)(=O)NCc4ccccc4)c(F)c3)c2)CC1`, 6.48.
In the case of `O=C(Nc1cccc(-c2nn3ccccc3c2-c2ccnc(Nc3cccc(-c4cnco4)c3)n2)c1)C1CCCCC1`, the pIC50 is 6.59.
As for `CC(C)Oc1cc2c(cc1NS(=O)(=O)c1ccc(-c3ccc(Cl)cc3)cc1F)CCN(C)CC2`, the figure is 6.04; as for `CCCCCCc1c(C)[nH]c2cc(OC)ccc2c1=O`, 6.92; as for `Fc1cccc(COc2ccc(Nc3ncnc4sc(C#C[C@H]5CCCN5)cc34)cc2F)c1`, 6.06.
To `N#Cc1ccc(-c2ccc(C(=O)NCCCCN3CCC(c4cc(Br)c5c(c4OCC(N)=O)CCCC5)CC3)cc2)cc1` belongs 6.10; to `CCOc1ccc(N2C(N)=NC(N)=NC2(C)C)cc1`, 6.59.
As for `O=C(Nc1ccc(Cn2ncc(N3CCCNCC3)c(Cl)c2=O)cc1)Nc1ccc(SC(F)(F)F)cc1`, the figure is 6.28; as for `CNS(=O)(=O)CCNCc1ccc(-c2ccc3ncnc(Nc4ccc(OCc5ccccc5)cc4)c3c2)o1`, 6.14.
Regarding `CC(C)c1ccc(Nc2nc(NCCc3cnc[nH]3)nc(NCc3ccccc3)n2)cc1`, the pIC50 is 6.16.
The molecule `O=C(NC1CCN(Cc2ccccc2)CC1)c1cccc(-c2nc3ccc(Cl)cc3[nH]2)c1` gave a pIC50 of 6.07.
Molecule `CC(C)c1ccc(OCC(O)CN(CCN2CCOCC2)C(=O)Nc2ccc(Br)cc2)cc1` (centres undefined) showed a pIC50 of 6.14.
For the molecule `COC(=O)c1ccc(CC(C)NCC(O)c2cccc(Br)c2)cc1` (centres undefined), the pIC50 is 6.16.
As for `O=C1COc2ccc(S(=O)(=O)N3CCC[C@@H]3CCN3CCC(c4c[nH]c5cnccc45)CC3)cc2N1`, the figure is 6.07; as for `CC(C)C[C@H](NC(=O)c1cccc(F)c1)C(=O)N[C@H](/C=N/NC(=O)c1ccccc1)CCc1ccccc1`, 6.15.
To `CCCCC(=O)Nc1nonc1-c1ccc(OCC)c(OCC)c1` belongs 6.04; to `CN1CCCCC1CCc1cc(C(=O)Nc2ccc(-c3ccc(O)cc3)cc2)ccc1O` (centres undefined), 5.95.
To `O=C(Cc1cccc(Cl)c1)N1CCc2cc3nccc(N4CCN5CCC[C@H]5C4)c3cc21` belongs 6.07; to `NCC(=O)Nc1cccc(Nc2nccc(-c3c(-c4cccc(NC(=O)c5ccccc5)c4)nn4ccccc34)n2)c1`, 6.37.
For `Cc1[nH]c(C)c(-c2ccc(CCc3ccc(N)cc3)cc2)c(=O)c1Cl`, the pIC50 is 7.00.
To `COCCNC(=O)C1CCN(C(c2ccc(Cl)cc2)c2ccc(Cl)cc2)CC1` belongs 6.26.
To `CC(C)CCNc1nc(NCc2ccccc2)c2cc(O)ccc2n1` belongs 6.96.
To `COc1ccc(C=NNc2nc(-c3ccccc3)cc(=O)[nH]2)cc1OC` belongs 6.23; to `Cc1cc2nc(-c3ccc(C(=O)NC4CCN(Cc5ccccc5)CC4)cc3)[nH]c2cc1C`, 6.13; to `CC(C)c1ccc(Cn2cc(-c3ccncc3)c3cc(OCc4ccccc4)ccc32)cc1`, 6.15.
Turning to `Cn1cncc1C(=O)Nc1cccc(-c2cccc(-c3nc4ccccc4[nH]3)c2)c1`, the pIC50 was 6.19.
As for `O=C(Nc1ccc(-c2ccccc2)cc1)Nc1cccc(Cn2nc(Cl)c(N3CCCNCC3)cc2=O)c1`, the figure is 6.17; as for `Cc1cc2c3c(N)nc(N)nc3ccc2n1C(C)C`, 8.00; as for `CC(=O)Nc1cccc(C(=O)Nc2ccc(-c3ccc(-c4nc5c(C)cccc5[nH]4)s3)cc2)c1`, 5.76.
As for `Cc1nc(N)nc(N)c1C#CC1CCCC1`, the figure is 6.11; as for `CN(C)c1ccc(-c2nc3ccc(N)cc3[nH]2)cc1`, 6.62.
As for `C=CCN(c1ccc(OC)cc1)S(=O)(=O)c1ccc(Cl)c(C(=O)Nc2cccc(C#N)c2)c1`, the figure is 6.24.
In the case of `FC(F)(F)c1ccc2c(NCCNc3ccnc4cc(C(F)(F)F)ccc34)ccnc2c1`, the pIC50 is 7.52.

Source of the values: PubChem BioAssay AID2305 (GlaxoSmithKline (GSK), 2010).
